Laboratory results as given in US20100215579A1, “PHEN-NAPHTHALENE AND PHEN-QUINOLINE DERIVATIVES AND THEIR USE FOR BINDING AND IMAGING AMYLOID PLAQUES” (The Trustees of the University of Pennsylvania, priority 2007, published 2010).

Assays:
[1] = Biodistribution in ICR mice after an iv injection; type: in vivo
Source text: Biodistribution in ICR Mice After an iv Injection of [^18F][4-(6-{2-[2-(2-Fluoro-ethoxy)-ethoxy]-ethoxy}-naphthalen-2-yl)-phenyl]-methyl-amine in 1% EtOH/0.1% BSA in Water
(% dose/organ, avg of 3 mice±SD)
(% dose/g, avg of 3 mice±SD)
Biodistribution in ICR Mice After an iv Injection of [^18F]19a in 3% EtOH/0.1% BSA in Water
Biodistribution in ICR Mice After an iv Injection of [^18F]34a in 5% EtOH/0.1% BSA in Water
Biodistribution in ICR Mice After an iv Injection of [^18F]32a in 1% EtOH/0.1% BSA in Water

[2] = Log P (octanol/Na2HPO4 buffer pH 7.4); type: physicochemical; conditions: octanol/0.05 M Na2HPO4 buffer (pH 7.4)
[3] = Blood, 2 min after iv injection
[4] = Blood, 30 min after iv injection
[5] = Bone, 30 min after iv injection
[6] = Brain, 2 min after iv injection
[7] = Brain, 30 min after iv injection
[8] = Heart, 2 min after iv injection
[9] = Heart, 30 min after iv injection
[10] = Kidney, 2 min after iv injection
[11] = Kidney, 30 min after iv injection
[12] = Kidney, 1 hr after iv injection
[13] = Kidney, 2 hr after iv injection
[14] = Liver, 2 min after iv injection
[15] = Liver, 30 min after iv injection
[16] = Lung, 30 min after iv injection
[17] = Muscle, 2 min after iv injection
[18] = Muscle, 30 min after iv injection
[19] = Muscle, 1 hr after iv injection
[20] = Muscle, 2 hr after iv injection
[21] = Skin, 30 min after iv injection
[22] = Spleen, 2 min after iv injection
[23] = Spleen, 30 min after iv injection
[24] = Spleen, 1 hr after iv injection
[25] = Spleen, 2 hr after iv injection

SMILES: CNc1ccc(-c2ccc3nc(OCCOCCOCC[18F])ccc3c2)cc1 [[^18F]34a]
- % dose/g [1, 3]: 2.50 ± 0.14 % dose/g
- % dose/organ [1, 3]: 4.29 ± 0.20 % dose/organ
- % dose/g [1, 4]: 1.49 ± 0.15 % dose/g
- % dose/organ [1, 4]: 2.51 ± 0.18 % dose/organ
- % dose/g ([1]; Blood, 1 hr after iv injection): 1.61 ± 0.12 % dose/g
- % dose/organ ([1]; Blood, 1 hr after iv injection): 2.87 ± 0.20 % dose/organ
- % dose/g ([1]; Blood, 2 hr after iv injection): 1.52 ± 0.23 % dose/g
- % dose/organ ([1]; Blood, 2 hr after iv injection): 2.58 ± 0.26 % dose/organ
- % dose/g ([1]; Bone, 2 min after iv injection): 1.11 ± 0.11 % dose/g
- % dose/organ ([1]; Bone, 2 min after iv injection): 3.82 ± 0.33 % dose/organ
- % dose/g [1, 5]: 1.16 ± 0.20 % dose/g
- % dose/organ [1, 5]: 3.87 ± 0.43 % dose/organ
- % dose/g ([1]; Bone, 1 hr after iv injection): 1.49 ± 0.18 % dose/g
- % dose/organ ([1]; Bone, 1 hr after iv injection): 5.31 ± 0.31 % dose/organ
- % dose/g ([1]; Bone, 2 hr after iv injection): 2.33 ± 0.43 % dose/g
- % dose/organ ([1]; Bone, 2 hr after iv injection): 7.84 ± 0.91 % dose/organ
- % dose/g [1, 6]: 10.2 ± 1.09 % dose/g
- % dose/organ [1, 6]: 4.61 ± 0.60 % dose/organ
- % dose/g [1, 7]: 2.23 ± 0.29 % dose/g
- % dose/organ [1, 7]: 1.02 ± 0.11 % dose/organ
- % dose/g ([1]; Brain, 1 hr after iv injection): 1.88 ± 0.20 % dose/g
- % dose/organ ([1]; Brain, 1 hr after iv injection): 0.90 ± 0.08 % dose/organ
- % dose/g ([1]; Brain, 2 hr after iv injection): 1.90 ± 0.25 % dose/g
- % dose/organ ([1]; Brain, 2 hr after iv injection): 0.85 ± 0.12 % dose/organ
- % dose/g [1, 8]: 10.7 ± 2.06 % dose/g
- % dose/organ [1, 8]: 1.26 ± 0.20 % dose/organ
- % dose/g [1, 9]: 2.86 ± 0.30 % dose/g
- % dose/organ [1, 9]: 0.36 ± 0.05 % dose/organ
- % dose/g ([1]; Heart, 1 hr after iv injection): 2.20 ± 0.31 % dose/g
- % dose/organ ([1]; Heart, 1 hr after iv injection): 0.29 ± 0.03 % dose/organ
- % dose/g ([1]; Heart, 2 hr after iv injection): 1.71 ± 0.13 % dose/g
- % dose/organ ([1]; Heart, 2 hr after iv injection): 0.19 ± 0.01 % dose/organ
- % dose/g [1, 10]: 13.6 ± 0.10 % dose/g
- % dose/organ [1, 10]: 5.22 ± 0.33 % dose/organ
- % dose/g [1, 11]: 4.41 ± 0.49 % dose/g
- % dose/organ [1, 11]: 1.69 ± 0.22 % dose/organ
- % dose/g [1, 12]: 3.57 ± 0.64 % dose/g
- % dose/organ [1, 12]: 1.36 ± 0.09 % dose/organ
- % dose/g [1, 13]: 2.47 ± 0.45 % dose/g
- % dose/organ [1, 13]: 1.00 ± 0.24 % dose/organ
- % dose/g [1, 14]: 18.2 ± 0.95 % dose/g
- % dose/organ [1, 14]: 21.2 ± 0.76 % dose/organ
- % dose/g [1, 15]: 11.9 ± 1.63 % dose/g
- % dose/organ [1, 15]: 14.2 ± 0.91 % dose/organ
- % dose/g ([1]; Liver, 1 hr after iv injection): 8.99 ± 1.19 % dose/g
- % dose/organ ([1]; Liver, 1 hr after iv injection): 11.8 ± 0.65 % dose/organ
- % dose/g ([1]; Liver, 2 hr after iv injection): 6.72 ± 0.58 % dose/g
- % dose/organ ([1]; Liver, 2 hr after iv injection): 8.29 ± 1.09 % dose/organ
- % dose/g ([1]; Lung, 2 min after iv injection): 6.83 ± 0.07 % dose/g
- % dose/organ ([1]; Lung, 2 min after iv injection): 1.34 ± 0.03 % dose/organ
- % dose/g [1, 16]: 2.87 ± 0.32 % dose/g
- % dose/organ [1, 16]: 0.54 ± 0.06 % dose/organ
- % dose/g ([1]; Lung, 1 hr after iv injection): 2.42 ± 0.34 % dose/g
- % dose/organ ([1]; Lung, 1 hr after iv injection): 0.48 ± 0.06 % dose/organ
- % dose/g ([1]; Lung, 2 hr after iv injection): 1.96 ± 0.29 % dose/g
- % dose/organ ([1]; Lung, 2 hr after iv injection): 0.36 ± 0.05 % dose/organ
- % dose/g [1, 17]: 0.65 ± 0.01 % dose/g
- % dose/organ [1, 17]: 6.40 ± 0.14 % dose/organ
- % dose/g [1, 18]: 1.50 ± 0.21 % dose/g
- % dose/organ [1, 18]: 14.5 ± 2.59 % dose/organ
- % dose/g [1, 19]: 1.33 ± 0.17 % dose/g
- % dose/organ [1, 19]: 13.5 ± 0.83 % dose/organ
- % dose/g [1, 20]: 0.98 ± 0.08 % dose/g
- % dose/organ [1, 20]: 9.55 ± 0.31 % dose/organ
- % dose/g ([1]; Skin, 2 min after iv injection): 0.58 ± 0.07 % dose/g
- % dose/organ ([1]; Skin, 2 min after iv injection): 2.13 ± 0.27 % dose/organ
- % dose/g [1, 21]: 1.03 ± 0.12 % dose/g
- % dose/organ [1, 21]: 3.70 ± 0.28 % dose/organ
- % dose/g ([1]; Skin, 1 hr after iv injection): 1.47 ± 0.12 % dose/g
- % dose/organ ([1]; Skin, 1 hr after iv injection): 5.67 ± 0.85 % dose/organ
- % dose/g ([1]; Skin, 2 hr after iv injection): 1.12 ± 0.05 % dose/g
- % dose/organ ([1]; Skin, 2 hr after iv injection): 4.12 ± 0.12 % dose/organ
- % dose/g [1, 22]: 4.11 ± 1.02 % dose/g
- % dose/organ [1, 22]: 0.47 ± 0.08 % dose/organ
- % dose/g [1, 23]: 2.16 ± 0.05 % dose/g
- % dose/organ [1, 23]: 0.21 ± 0.00 % dose/organ
- % dose/g [1, 24]: 1.89 ± 0.27 % dose/g
- % dose/organ [1, 24]: 0.17 ± 0.01 % dose/organ
- % dose/g [1, 25]: 1.48 ± 0.20 % dose/g
- % dose/organ [1, 25]: 0.14 ± 0.02 % dose/organ
- Log P [2]: 3.23
